Where two headings read alike, the source gives them in different places.
Experiments:
FDPS = FDPS (Homo sapiens (Human), UniProt P14324); test: FDPS enzyme assay; type: biochemical
Description: (§1) FIG. 9 GGDPS and FDPS enzyme assay data for compounds 19, 20, and 21. Each assay was performed in three independent experiments (R1, R2, R3) and each compound was tested in duplicate at each concentration.
(§2) Each assay was performed in three independent experiments (R1, R2, R3) and each compound was tested in duplicate at each concentration.

RPMI-8226 cells [1] = test: Cellular protein geranylgeranylation: Rap1a immunoblot plus intracellular lambda light chain ELISA; type: cell-based, Human; conditions: 48 h; for Cellular LEC (lowest effective concentration): lowest concentration with visible unmodified Rap1a band and statistically significant increase in intracellular lambda light chain; for relative cellular activity (comparison in words): myeloma cells
Description: (§3) RPMI-8226 cells were incubated for 48 h in the presence or absence of lovastatin (Lov, 10 μM) or varying concentrations of the test compounds. Intracellular lambda light chain concentrations were determined via ELISA. Data are expressed as a percentage of control (mean±SD, n=3). The * denotes p<0.05 per unpaired two-tailed t-test.
The impact of substituents at the α-carbon of the compounds disclosed herein on cellular activity was assessed in myeloma cells. Impairment of cellular protein geranylgeranylation was determined via two methods: 1) ELISA for intracellular lambda light chain which is a marker for disruption of Rab GTPase geranyl-geranylation (FIGS. 1, 3, 5, 7) and 2) immunoblot analysis for unmodified Rap1a (a substrate of GGTase I) (FIGS. 2, 4, 6, 8). Lovastatin, an HMG-CoA reductase inhibitor, was included as a positive control. […] Next, the impact of the olefin stereochemistry on biological activity was determined.
Immunoblot analysis (FIG. 2, 4, 6, 8): Multiple myeloma cells were incubated (37° C. and 5% CO2) with test compounds for 48 hours in RPMI-1640 media containing 10% fetal bovine serum and penicillin-streptomycin. Whole cell lysate was obtained using RIPA buffer (0.15 M NaCl, 1% sodium deoxycholate, 0.1% SODS, 1% Triton (v/v) X-100, 0.05 M Tris HCl) containing protease and phosphatase inhibitors. Protein content was determined using the bicinchoninic acid (BCA) method (Pierce Chemical, Rockford, IL). Equivalent amounts of cell lysate were resolved by SODS-PAGE, transferred to polyvinylidene difluoride membrane, probed with the appropriate primary antibodies, and detected using HRP-linked secondary antibodies and Bio-Rad Clarity ECL Substrate Western blotting reagents per manufacturer's protocols.
(§4) Lambda light chain ELISA (FIG. 1, 3, 5, 7): Human lambda light chain kit (Bethyl Laboratories, Montgomery, TX) was used to quantify intracellular monoclonal protein levels of whole cell lysate. Lambda light chain levels were normalized to total protein levels (as determined by BCA).

Recombinant GGDPS = Recombinant GGDPS (Homo sapiens (Human), UniProt O95749); test: GGDPS enzyme assay; type: biochemical; conditions: for Selectivity for GGDPS to FDPS: ratio FDPS IC50 / GGDPS IC50
Recombinant GGDPS, sequence (O95749 whole entry): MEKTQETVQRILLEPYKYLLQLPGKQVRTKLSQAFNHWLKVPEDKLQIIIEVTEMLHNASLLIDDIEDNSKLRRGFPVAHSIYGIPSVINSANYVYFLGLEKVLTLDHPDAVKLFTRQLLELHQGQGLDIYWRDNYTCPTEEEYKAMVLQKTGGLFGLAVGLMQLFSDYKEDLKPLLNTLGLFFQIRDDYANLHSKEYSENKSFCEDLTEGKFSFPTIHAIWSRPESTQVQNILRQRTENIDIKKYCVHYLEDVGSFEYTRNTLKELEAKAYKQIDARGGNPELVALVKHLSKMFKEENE
Description: as §1, §2
GGDPS Enzyme assay (FIG. 9, 10, 11): Recombinant GGDPS was obtained from MyBioSource (San Diego, CA). Recombinant enzyme (20 nM GGDPS) was incubated with assay buffer (50 mM Tris-HCl, pH 7.7, 20 mM MgCl2, 5 mM TCEP, 5 μg/mL BSA) and test compounds for 10 minutes at room temperature. The reaction was initiated by the addition of 10 μM FPP and 10 μM [^14C]-IPP and was carried out at 37° C. for 30 minutes. The reaction was stopped by the addition of saturated NaCl. Radiolabeled GGPP was extracted with n-butanol and counted via liquid scintillation counting. CompuSyn software (ComboSyn, Inc.) was used to analyze the concentration response curves and determine the IC50 values.

RPMI-8226 cells [2] = test: Lambda light chain ELISA (intracellular lambda light chain, marker of Rab GTPase geranylgeranylation disruption); type: cell-based, Human; conditions: 48 h
Description: as §3, §4

[3] = 20 nM recombinant GGDPS, 10 μM FPP, 10 μM [14C]-IPP, 37° C. 30 minutes, read-out: GGDPS IC50

FDPS, sequence (P14324 whole entry, species assumed): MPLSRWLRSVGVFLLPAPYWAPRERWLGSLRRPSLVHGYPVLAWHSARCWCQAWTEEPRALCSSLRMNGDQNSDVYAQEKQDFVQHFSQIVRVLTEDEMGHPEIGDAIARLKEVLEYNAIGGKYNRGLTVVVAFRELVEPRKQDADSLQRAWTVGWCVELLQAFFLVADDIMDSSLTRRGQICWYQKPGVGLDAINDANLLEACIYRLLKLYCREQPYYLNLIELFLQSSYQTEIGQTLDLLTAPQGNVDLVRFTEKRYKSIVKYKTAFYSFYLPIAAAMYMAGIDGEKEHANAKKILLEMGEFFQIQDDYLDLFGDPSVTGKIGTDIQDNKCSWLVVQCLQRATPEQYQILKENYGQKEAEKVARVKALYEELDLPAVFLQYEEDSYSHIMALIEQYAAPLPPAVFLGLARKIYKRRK

| Compound | IC50 (FDPS) [µM] | Cellular LEC (lowest effective concentration) (RPMI-8226 cells [1]) [µM] | IC50 (Recombinant GGDPS) [µM] | relative GGDPS inhibitory activity in enzymatic assays (comparison in words) (Recombinant GGDPS) | Selectivity for GGDPS to FDPS (Recombinant GGDPS) | relative cellular activity (comparison in words) (RPMI-8226 cells [1]) | IC50 (FDPS; read-out: FDPS IC50) [µM] | IC50 (Recombinant GGDPS; [3]) [µM] | cellular potency of Z-isomer relative to the E-isomer 21 (RPMI-8226 cells [2]; FIG. 5, RPMI-8226 cells) | specificity (selectivity) for GGDPS over FDPS (Recombinant GGDPS) | improvement in cellular activity of POM-version versus corresponding salt 17 (RPMI-8226 cells [2]; FIG. 7, RPMI-8226 cells) |
| --- | --- | --- | --- | --- | --- | --- | --- | --- | --- | --- | --- |
| CC(C)=CCCC(C)=CCCn1cc(CC(C)(P(=O)([O-])[O-])P(=O)([O-])[O-])nn1.[Na+].[Na+].[Na+].[Na+] [Compound 16, Sodium (1-(1-(4,8-dimethylnona-3,7-dien-1-yl)-1H-1,2,3-triazol-4-yl)propane-2,2-diyl)bis(phosphonate)] | 62.2 ± 7.22 | 0.1 | 1.27 ± 0.303 | very similar to the individual isomers | 49 | – | – | – | – | – | – |
| CC(C)=CCC/C(C)=C\CCn1cc(CC(C)(P(=O)([O-])[O-])P(=O)([O-])[O-])nn1.[Na+].[Na+].[Na+].[Na+] [Compound 17, Sodium (Z)-(1-(1-(4,8-dimethylnona-3,7-dien-1-yl)-1H-1,2,3-triazol-4-yl)propane-2,2-diyl)bis(phosphonate)] | > 100 | 0.1 | 0.92 ± 0.089 | – | >108 | – | – | – | – | – | – |
| CC(C)=CCC/C(C)=C/CCn1cc(CC(C)(P(=O)([O-])[O-])P(=O)([O-])[O-])nn1.[Na+].[Na+].[Na+].[Na+] [Compound 18, Sodium (E)-(1-(1-(4,8-dimethylnona-3,7-dien-1-yl)-1H-1,2,3-triazol-4-yl)propane-2,2-diyl)bis(phosphonate)] | 71.4 ± 24.2 | 5.0 | 20.5 ± 2.3 | – | 3.5 | slightly more potent than the Z-isomer | – | – | – | – | – |
| CC(C)=CCCC(C)=CCn1cc(CC(C)(P(=O)([O-])[O-])P(=O)([O-])[O-])nn1.[Na+].[Na+].[Na+].[Na+] [Compound 19, Sodium (1-(1-(3,7-dimethylocta-2,6-dien-1-yl)-1H-1,2,3-triazol-4-yl)propane-2,2-diyl)bis(phosphonate)] | – | 0.03 | – | more potent than its corresponding non-methylated analogue 31 | 241 | – | 24.1 ± 3.15 | 0.1 ± 0.019 | – | – | – |
| CC(C)=CCC/C(C)=C\Cn1cc(CC(C)(P(=O)([O-])[O-])P(=O)([O-])[O-])nn1.[Na+].[Na+].[Na+].[Na+] [Compound 20, Sodium (Z)-(1-(1-(3,7-dimethylocta-2,6-dien-1-yl)-1H-1,2,3-triazol-4-yl)propane-2,2-diyl)bis(phosphonate)] | – | 0.025 | – | more potent than the E isomer 21 | 693 | – | 59.6 ± 15 | 0.086 ± 0.022 | approximately 50 fold | – | – |
| CC(C)=CCC/C(C)=C/Cn1cc(CC(C)(P(=O)([O-])[O-])P(=O)([O-])[O-])nn1.[Na+].[Na+].[Na+].[Na+] [Compound 21, Sodium (E)-(1-(1-(3,7-dimethylocta-2,6-dien-1-yl)-1H-1,2,3-triazol-4-yl)propane-2,2-diyl)bis(phosphonate)] | – | 0.02 | – | – | 345 | – | 43.1 ± 2.98 | 0.125 ± 0.027 | – | at least 3.5 fold | – |
| CC(C)=CCC/C(C)=C\CCn1cc(CC(C)(P(=O)(OCOC(=O)C(C)(C)C)OCOC(=O)C(C)(C)C)P(=O)(OCOC(=O)C(C)(C)C)OCOC(=O)C(C)(C)C)nn1 [Compound 25, (Z)-(((1-(1-(4,8-dimethylnona-3,7-dien-1-yl)-1H-1,2,3-triazol-4-yl)propane-2,2-diyl)bis(oxo-15-phosphanetriyl))tetrakis(oxy))tetrakis(methylene) tetrakis(2,2-dimethylpropanoate)] | – | – | – | – | – | – | – | – | – | – | approximately 10 fold |
| CCC(Cc1cn(C/C=C(\C)CCC=C(C)C)nn1)(P(=O)(O)O)P(=O)(O)O [Compound 28] | – | 2.5 | – | – | 16 | less potent than either the parent compound 31 | 94.3 ± 20.6 | 5.85 ± 1.3 | – | – | – |

Reference: patent US12083137B2, “Triazole bisphosphonate geranylgeranyl diphosphate synthase inhibitors” (BOARD OF REGENTS OF THE UNIVERSITY OF NEBRASKA, priority 2017, dated 2024)
